The values below come from patent US10259809B2, “Fluorinated imidazo[4,5-C]quinoline derivatives as inhibitors of bromodomain containing proteins” (Trillium Therapeutics Inc., priority 2015, dated 2019).

Each structure is given as a SMILES string.

One data set deals with MM.1S. The data set is described as follows: Oncology cell growth assay, MM.1S. It is filed as cell-based, human. As to conditions: Multiple myeloma, gIC50, 72 hours. Here is the method:
(§1) Human cell lines were cultured in RPMI-1640 containing 10% fetal bovine serum, 1000 viable cells per well were plated in 384-well black flat bottom polystyrene plates (Greiner #781086) in 48 ˜I of culture media. All plates were placed at 5% CO2, 37° C. overnight. The following day one plate was harvested with CeliTiter-Glo (CTG, Promega #G7573) for a time equal to 0 (TO) measurement and compound (20 point titration from 14.7 uM to 7 pM) was added to the remaining plates. The final concentration of DMSO in all wells was 0.15%. Cells were incubated for 72 hours or the indicated time and each plate was developed with CeliTiterGlo reagent using a volume equivalent to the cell culture volume in the wells. Plates were shaken for approximately 2 minutes and chemiluminescent signal was read on the Analyst GT (Molecular Devices) or EnVision Plate Reader (Perkin Elmer).
(§2) Results are expressed as a percent of the TO and plotted against the compound concentration. The TO value was normalized to 100% and represents the number of cells at time of compound addition and the concentration response data were fit with a 4 parameter curve fit using XLfit software (model 205). […] The Ymin-TO value was determined by subtracting the TO value (100%) from the Ymin value (%) determined from the fit of the concentration response curve. […]

The test system of data set [1] is MV4-11 human AML xenograft. The data set is described as follows: MV4-11 subcutaneous human AML xenograft model, efficacy. As to conditions: PO. It is filed as in vivo, NOD SCID mice. On the procedure: • Species & Strain: NOD SCID mice • Age: 7-8 week • Total Number: 60 mice plus 40% spare • Sex: Female • Body Weight: 18 to 22 g Animal Maintenance
Groups and treatments started when the mean tumor volume reached 138 mm^3. Based on the tumor volume, mice were randomly assigned to respective groups using a computer-generated randomization procedure.
Each mouse was inoculated subcutaneously on the right flank with MV4-11 tumor cells ([…]) in 0.1 ml of IMDM without serum for tumor development. The treatment started when the mean tumor size reached approximately 138 mm^3. Mice were randomized into groups.
During the course of study, the tumor size was measured twice a week in two dimensions using a caliper, and the volume was expressed in mm^3 using the formula: TV=a×b2/2 where a and b were the long and short diameters of the tumor, respectively. The tumor size was then used for T/C and TGI (tumor growth inhibition) values, which were indicators of anti-tumor effectiveness. T/C was calculated with the formula [(Td−T0)/(Cd−C0)]×100%, TGI is calculated with the formula [1−(Td−T0)/(Cd−C0)]×100%. Td and Cd were the mean tumor volumes (or median tumor volumes) of the treated and control animals, and T0 and C0 were the mean tumor volumes of the treated and control animals at the start of the experiment.

In the next data set the test system is HL60. The data set is described as follows: Oncology cell growth assay, HL60. It is filed as cell-based, human. Particulars: HL60, Promyelocytic leukemia, gIC50, 72 hours. On the procedure: as §1, §2
Another data set relates to MOLT4. Briefly: Oncology cell growth assay, MOLT4. It is filed as cell-based, human. As to conditions: MOLT4, acute lymphoid leukemia; gIC50, 72 hours. On the procedure:
as §1, §2

A further data set concerns SK-OV-3. Briefly: Oncology cell growth assay, SK-OV-3. As to conditions: SK-OV-3, Ovarian cancer, gIC50, 72 hours. The data set is classed as cell-based, human. On the procedure: as §1, §2
Another data set has as its system RPMI-8226. Briefly: Oncology cell growth assay, RPMI-8226. Particulars: RPMI-8226, Multiple myeloma, gIC50, 72 hours. It is filed as cell-based, human. On the procedure:
as §1, §2

The nature of data set [2]: MV4-11 xenograft model, tolerance (body weight, clinical signs). The data set is classed as in vivo. Here is the method: For routine monitoring, all study animals were monitored not only tumor growth but also behavior such as mobility, food and water consumption (by cage side checking only), body weight (BW), eye/hair matting and any other abnormal effect. Any mortality and/or abnormal clinical signs would be recorded.
Body weights of all animals were measured twice weekly throughout the study.

A further data set relates to TEX. The data set is described as follows: Oncology cell growth assay, TEX. It is filed as cell-based, human. As to conditions: AML (acute myeloid leukemia), gIC50, 72 hours. Here is the method:
as §1, §2

For another data set, the system named is MV4-11. Briefly: Oncology cell growth assay, MV4-11. The data set is classed as cell-based, human. As to conditions: MV4-11, AML (acute myeloid) leukemia, gIC50, 72 hours. Here is the method:
as §1, §2

In another data set the test system is AML2. Briefly: Oncology cell growth assay, AML2. The data set is classed as cell-based, human. Particulars: AML2, AML (acute myeloid leukemia), gIC50, 72 hours. Here is the method: as §1, §2
For another data set, the system named is AR target genes. As to conditions: AR-positive cells; cited from earlier work.
The subject of a further data set is ABC DLBCL. As to conditions: combination with drugs targeting B-cell receptor signaling; cited from earlier work.
The test system of data set [3] is prostate cancer cell lines with activated AR signaling. Particulars: cited from earlier work.
Another data set concerns GBM cell. As to conditions: in vitro and in vivo; cited from earlier work.
Data set [4] can be described thus: Liver microsome stability, human. Particulars: pooled human liver microsomes (50 donors), 1 μM compound, 0.5 mg/ml microsomes, 37° C., read-out: % recovery Human Liver Microsomes (HLM) (30 min). The data set is classed as in vitro ADME. Here is the method:
(§3) Working stocks were initially diluted to a concentration of 40.0 μM in 0.1 M potassium phosphate buffer before addition to the reaction vials. Pooled mouse (CD-1, male) or human (50 donors) liver microsomes were utilized at a final concentration of 0.5 mg/ml. Duplicate wells were used for each time point (0 and 30 minutes). Reactions were carried out at 37° C. in a shaker, and the final concentration of DMSO was kept constant at 0.01%. The final volume for each reaction was 100 μL, which includes the addition of an NADPH-Regeneration solution (NRS) mix. This NRS mix was comprised of glucose 6-phosphate dehydrogenase (0.4 U/mL), NADP+ (1.3 mM), MgCl2 (3.3 mM), and glucose 6-phosphate (3.3 mM) in assay mixtures. Upon completion of the 30 minute time point, reactions were terminated by the addition of 1.5-volumes (150 μL) of ice-cold, acetonitrile with 0.5% formic acid and internal standard. Samples were then centrifuged at 4,000 rpm for 10 minutes to remove debris and precipitated protein. Approximately 150 μL of supernatant was subsequently transferred to a new 96 well microplate for LC/MS analysis.
(§4) Narrow-window mass extraction LC/MS analysis was performed for all samples using a Waters Xevo quadrupole time-of-flight (QTof) mass spectrometer and an ACQUITY UPLC system, to determine relative peak areas of parent compound.
A general note: Liver microsomes are vesicles of endoplasmic reticulum, rich in cytochrome P450 enzymes.

Data set [5] can be described thus: Liver microsome stability, mouse. As to conditions: male, CD-1, mouse, pooled mouse liver microsomes, 1 μM compound, 0.5 mg/ml microsomes, 37° C., read-out: % recovery Mouse Liver Microsomes (MLM) (30 min). It is filed as in vitro ADME, mouse (CD-1. On the procedure: as §3, §4
A further data set concerns the target T1, BRD2-1: Domain 1 of BRD2 (Homo sapiens, UniProt P25440).
T1 construct: BRD2-1: Domain 1 of BRD2
Briefly: Bromodomain binding assay (Example 6), BRD2-1. On the procedure:
(§5) The binding of the compounds of the application to bromodomains BRD2, BRD3 and BRD4 was assessed using a time resolved fluorescent resonance energy transfer binding assay (Alpha Screen Technology), that measures the binding of an acetylated histone peptide to the bromodomain protein.
(§6) The bromodomain protein, histone peptide and a variable concentration of test compound were incubated together to reach thermodynamic equilibrium.

The target in a further data set is T2, BRD3-1: Domain 1 of BRD3 (Homo sapiens, UniProt Q15059).
T2 construct: BRD3-1: Domain 1 of BRD3
Briefly: Bromodomain binding assay (Example 6), BRD3-1. Here is the method:
as §5, §6

For another data set, the target named is T3, BRD4-FL (Homo sapiens, UniProt O60885).
T3 construct: BRD4-FL: Full length BRD4
Briefly: BET Bromodomain AlphaScreen assay (Example 9), BRD4-FL. The data set is classed as binding. On the procedure: (§7) The reader assay was a binding assay using the AlphaScreen technology fluorescence energy resonance transfer (FRET) assay. The biotinylated peptide binding to the reader domain of His-tagged protein is monitored by the singlet oxygen transfer from the Streptavidin-coated donor beads to the AlphaScreen Ni-chelate acceptor beads.
(§8) Reaction buffer: 50 mM Hepes, pH7.5, 100 mM NaCl, 0.05% CHAPS, 0.1% BSA, and 1% DMSO (Buffer and DMSO concentration may be different for different reader).
(§9) Biotin-peptide; sequences were different for different targets.
(§10) Reaction Procedure: • 1. Deliver 4× BRD in wells of reaction plate except No BRD control wells. Add buffer instead. • 2. Deliver compounds in 100% DMSO into the BRD mixture by Acoustic technology (Echo550; nanoliter range). Spin down and pre-incubation for 30 min. • 3. Deliver 4× Ligand. Spin and shake. • 4. Incubate for 30 min at room temperature with gentle shaking. • 5. Deliver 4× donor beads. Spin and shake. • 6. Deliver 4× acceptor beads. Spin and shake. Then gentle shaking in the dark for 60 min. • 7.
Background: Bead proximity is the source of the signal in Alpha formats.

A further data set concerns the target T4, BRD2-1 (Homo sapiens, UniProt P25440).
T4 construct: BRD2-1: Domain 1 of BRD2
The data set is described as follows: BET Bromodomain AlphaScreen assay (Example 9), BRD2-1. The data set is classed as binding. Here is the method: as §7, §8, §9, §10

A further data set concerns the target T5, BRD3-1 (Homo sapiens, UniProt Q15059).
T5 construct: BRD3-1: Domain 1 of BRD3
Briefly: BET Bromodomain AlphaScreen assay (Example 9), BRD3-1. The data set is classed as binding. On the procedure:
as §7, §8, §9, §10

For data set [6], the target named is T6, BRD4-FL: Full length BRD4 (Homo sapiens, UniProt O60885).
T6 construct: BRD4-FL: Full length BRD4
Briefly: Bromodomain binding assay (Example 6), BRD4-FL. Here is the method:
as §5, §6

T4 sequence (P25440 74-180 limits assumed): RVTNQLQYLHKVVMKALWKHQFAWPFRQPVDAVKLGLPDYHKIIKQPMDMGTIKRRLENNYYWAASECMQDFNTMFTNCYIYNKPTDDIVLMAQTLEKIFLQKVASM
T1 sequence (P25440 74-180 limits assumed): as above
T5 sequence (Q15059 34-140 limits assumed): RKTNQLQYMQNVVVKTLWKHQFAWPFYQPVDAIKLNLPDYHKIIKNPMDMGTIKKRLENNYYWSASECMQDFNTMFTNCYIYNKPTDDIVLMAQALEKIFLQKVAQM
T2 sequence (Q15059 34-140 limits assumed): as above

The term IC50 denotes the midpoint of a concentration-inhibition curve. As to `COc1cc2c(cc1-c1c(C)noc1C)ncc1nc(C3CCOCC3)n([C@H](C)COC(F)F)c12.Cl` [2(g)·HCl], the concentration for half-maximal inhibition (IC50) in the data set on MM.1S came out at 17 ± 4 nM; in the data set on HL60, 51 ± 3 nM; in the data set with MOLT4, 1140 nM; in the data set on SK-OV-3 it was 2180 ± 1440 nM; in the data set on RPMI-8226, 303 ± 6 nM; in the data set with TEX, 23 ± 2 nM. Further, the IC50 with MV4-11 came to 14 ± 7 nM; in the data set on AML2 it was 18 ± 2 nM. The antitumor activity result in [1] (30 mg/kg and 50 mg/kg) is given as “significant antitumor activity”; in data set [1] (low-dose 10 mg/kg, QD × 14) it was “moderate antitumor activity”. Also, in data set [2] (50 mg/kg PO, during the dosing period), the body weight loss stood at 9.1%. Moreover, in [2] (50 mg/kg, after a two days dose suspension on Day 8 and 9), the “body weight after dose suspension” value is “maintained or recovered”.
For the compound `Cc1sc2c(c1C)C(c1ccc(Cl)cc1)=N[C@@H](CC(=O)OC(C)(C)C)c1nnc(C)n1-2` [JQ-1], in the data set on AR target genes, the “levels of transcription of AR target genes” value is given as “globally reduced the levels of transcription of AR target genes”. Further, in the data set with ABC DLBCL, the drug-drug synergy entry is given as “combined favorably with multiple drugs targeting B-cell receptor signaling”. The “apoptosis and cell cycle arrest” value in [3] is “sensitive to JQ1-induced apoptosis and cell cycle arrest”.
Consider `COc1cc2c(cc1-c1c(C)noc1C)ncc1[nH]c(=O)n([C@H](C)c3ccccn3)c12` [I-BET151], for which, in the data set with GBM cell, the GBM cell proliferation result is “reduced GBM cell proliferation in vitro and in vivo”.
The EC50 is the concentration that produces a half-maximal response. On to `COc1cc2c(cc1-c1c(C)noc1C)ncc1nc(C3CC3)n([C@H](C)COC(F)F)c12.Cl` [2(l), 4-[2-cyclopropyl-1-[(1R)-2-(difluoromethoxy)-1-methyl-ethyl]-8-methoxy-imidazo[4,5-c]quinolin-7-yl]-3,5-dimethyl-isoxazole hydrochloride], for which the concentration for half-maximal inhibition (IC50) with MM.1S (Homo sapiens, MM1.S) amounted to 94 ± 14 nM; in the data set on HL60 (Homo sapiens, HL-60), 179 ± 10 nM; at BRD2-1: Domain 1 of BRD2, 42 nM; at BRD3-1: Domain 1 of BRD3 it was 21 nM; in the data set with SK-OV-3 (Homo sapiens) it was 360 ± 10 nM; in data set [6] it was 33 nM. Moreover, the IC50 in the data set with RPMI-8226 (Homo sapiens) was 109 ± 32 nM; in the data set with TEX (Homo sapiens) it was 52 ± 73 nM; in the data set on MV4-11 (Homo sapiens), 156 ± 43 nM; with AML2 (Homo sapiens) it was 15 ± 1 nM. In addition, the antitumor activity entry in data set [1] (30 mg/kg and 50 mg/kg) was “significant antitumor activity”. The recovery at 30 min, 1 μM in data set [4] was determined as 43.6%; in data set [5], 3%. In addition, the results for the EC50 on BRD4-FL, at BRD2-1 and on BRD3-1 were 33.1 nM, 42.2 nM and 20.7 nM, respectively. Further, the tolerance result in [2] (all dose levels (30 and 50 mg/kg PO)) is given as “tolerated well”.
